System: TNFα
Assay: Relative TNFα mRNA expression in IL-1β-stimulated MKN-45 cells (real-time PCR)
Assay type: cell-based, human
Conditions: IL-1β-stimulated DMSO-treated cells = 100%, ACTB reference
Protocol: RNA was extracted from the cells used in Example 2 according to the manufacturer's protocol for ABI Prism 6100 Nucleic Acid PrepStation (a nucleic acid isolation system, product of Applied Biosystems). More specifically, after removal of the culture supernatant and washing with 1 mL of PBS, 250 μL of Nucleic Acid Purification Lysis Solution (Part No. 4305895, Applied Biosystems) was added, and then agitated using a shaker for 2 to 3 minutes. The Lysis Solution containing the cell lysate was collected, and the total amount was transferred to the wells of RNA Purification Tray (Part No. 4305673, Applied Biosystems), which had been pre-wet with 40 μL of Nucleic Acid Purification Wash Solution I (Part No. 4305891, Applied Biosystems) beforehand. Aspiration (20% pressure) was performed for 2 minutes to adsorb the sample onto the RNA Purification Tray, followed by sequentially adding and aspirating (20% pressure, 2 min.) 500 μL of Wash Solution I, Nucleic Acid Purification (Part No. 4305891, Applied Biosystems), 400 μL of Wash Solution II, Nucleic Acid Purification (Part No. 4305890, product of Applied Biosystems), 400 μL of the Wash Solution II, and 300 μL of the Wash Solution II in that order. Aspiration (90% pressure) was performed for 5 minutes to remove the water content from the RNA Purification Trays. After addition of 150 μL of Elution Solution, Nucleic Acid Purification (Part No. 4305893, product of Applied Biosystems), aspiration (20% pressure) was performed for 2 minutes, while collecting the outflow. This was used as collected RNA solution.
Absorbance of the collected RNA solution at 260 nm was measured using a microplate spectrophotometer (“SpectraMax Plus”, product of Molecular Devices) with an analysis software (“SOFTmaxPRO ver.3.1.2”, product of Molecular Devices), and the RNA concentration was determined from the absorbance. Likewise, absorbance at 280 nm was measured and the purity of the RNA was determined using the analysis software.
cDNA was synthesized according to the manufacturer's protocol for TaqMan® Reverse Transcription Reagents (Part No. N808-0234, product of Applied Biosystems). More specifically, about 0.5 μg of RNA, 2.5 μL of 10×RT buffer, 5.5 μL of MgCl2 solution, 5 μL of dNTP mixture, 1.25 μL of random hexamer (primers), 0.5 μL of RNase inhibitor, and 0.63 μL of MultiScribe Reverse Transcriptase (product of Applied Biosystems) were added to each collected RNA sample in a tube, and DEPC-treated water was added to make a total volume of 25 μL and stirred. A reaction consisting of 25° C. for 10 minutes, 48° C. for 30 minutes, and 95° C. for 5 minutes was performed using a PCR thermal cycler (“TaKaRa PCR Thermal Cycler Dice”, product of Takara Bio Inc.) to prepare a cDNA solution.
PCR was performed according to the manufacturer's protocol for TaqMan® Gene Expression Assays (product of Applied Biosystems). More specifically, 5 μL of TaqMan® Fast Universal PCR Master Mix (product of Applied Biosystems), 0.5 μL of TaqMan® Gene Expression Assays for the target gene (gene-specific probe and primer sets, product of Applied Biosystems), and 4.5 μL of the above-obtained cDNA solution were added to each sample and stirred. A PCR reaction consisting of heating at 95° C. for 20 seconds, followed by 40 cycles consisting of heating at 95° C. for 3 seconds and annealing and extension at 60° C. for 30 seconds was performed using a real-time PCR device (“Applied Biosystems 7500 Real-Time PCR System”) with SDS v1.4 Software (product of Applied Biosystems). Threshold cycle (Ct) values were calculated using the software.
The Assay IDs of the TaqMan® Gene Expression Assays for the target genes used are as follows:
The expression level of each gene was determined according to the following formula using the level of ACTB as a reference standard.
(Relative mRNA expression level)=2̂−{(Ct value of the target gene)−(Ct value of ACTB)} […]

In the case of COc1ccc(CC2SC(=S)NC2=O)c2c1N(CCC(C)C)C(=O)CC2 (stereo not shown) [Test Compound 965], the “TNFa relative mRNA expression level, Mean” value was 63.0%.

— patent publication US20090326008A1, “NF-kappa B Inhibitor” (priority 2006, published 2009)
